# In patent US10309967B2, “Methods of diagnosing bipolar disorders and screening for therapeutic compounds” (National University Corporation Chiba University, priority 2015, dated 2019):
# “Also recorded” adds a separate entry of the source.
# Tested on: CSF samples from rats
# Experiment: Metabolomics (CE-TOFMS) of CSF samples from rats chronically treated with Li or VPA
# Assay type: in vivo, rat
# Details: chronic (4-weeks) treatment via drinking water
# Description: Data from human samples are presented as mean±standard deviation (SD). Statistical analysis was performed using SAS software version 9.3 (SAS Institute, Cary, N.C.). Analyses of metabolites between control and BD groups were performed using unpaired t-tests and Wilcoxon rank sum tests. A logistic regression model with a stepwise selection method was used for the multivariate analysis and multiple regression analysis (consistent with description in Allen et al., Technometrics. 1974; 16(1):125-127; and Miller et al., Chapman and Hall. 1974, which are incorporated in their entireties by reference herein). […] The Mann-Whitney U test (two-tailed) was used to evaluate changes in expression levels of the ACO and IDH genes between control and BD groups. Rat data are presented as mean±SD. To determine the effects of drug treatment, a one-way ANOVA, followed by the post hoc Dunnett's test was used. P values of less than 0.05 for two-tailed tests were considered statistically significant.
# The volume (50 μL) of CSF sample was added to 450 μL it methanol containing internal standards, and mixed. Then, 450 μL chloroform and 200 μL Milli-Q water was added to the mixture. After mixture, the mixture was centrifuged at 2,300×g and 4° C. for 5 min. Subsequently, 800 μL of upper aqueous layer was centrifugally filtered through a Millipore 5-kDa cutoff filter at 9,100×g and 4° C. for 120 min to remove proteins. The filtrate was centrifugally concentrated and re-suspended in 25 μL of Milli-Q water for analysis.
# Cationic compounds were measured in the positive mode of CE-TOFMS (Agilent CE-TOFMS system Machine No. 3, Fused silica capillary, i.d. 50 μM×80 cm), and anionic compounds were measured in the positive and negative modes of CE-MS/MS (Agilent CE system and Agilent 6400 TripleQuad LC/MS Machine No. QqQ01, Fused silica capillary, i.d. 50 μM×80 cm), as reported previously (Soga et al., Anal. Chem. 2000; 72(6):1236-1241; Soga et al., Anal Chem. 2002; 74(10):2233-2239; Soga et al., J. Proteome Res. 2003; 2(5):488-494, which are incorporated in their entireties by reference herein). Peaks detected by CE-TOFMS and CE-MS/MS were extracted using automatic integration software (MasterHands, Keio University, Tsuruoka, Japan) (Sugimoto et al., Metabolomics. 2009; 6(1):78-95, which is incorporated in its entirety by reference herein) and MassHunter Quantitative Analysis B.04.00, Agilent Technologies, Santa Clara, Calif., USA) in order to obtain peak information including m/z, migration time (MT), and peak area. The peaks were annotated with putative metabolites from the HMT metabolite database based on their MTs in CE and m/z values determined by TOFMS. The tolerance range for the peak annotation was configured at ±0.5 min for MT and ±10 ppm for m/z. In addition, concentrations of metabolites were calculated by normalizing the peak area of each metabolite with respect to the area of the internal standard and by using standard curves, which were obtained by three-point calibrations.
# The CSF concentrations of 116 major metabolites from several pathways were measured. […] Male Sprague-Dawley rats (Japan SLC Inc., Shizuoka, Japan) aged 6 weeks old were used in this study. All rats were housed in groups of three per cage in a room maintained at 23° C.±2° C. and 60±10% humidity with a 12/12 hour light/dark cycle (lights on at 7:00 a.m.). The rats were given free access to food and water. Animal care and use were conducted in accordance with the Institutional Guidelines for Animal Care and Use of Otsuka Pharmaceutical Co., Ltd. (Tokushima, Japan). […] The drinking water was replaced twice a week. […] All animals were decapitated on day 30 after CSF sampling, and brain regions (prefrontal cortex, and hippocampus) were dissected rapidly on ice. Metabolomic analyses of rat CSF samples were performed as described herein.
compound,measurement,setting,value
"O=C([O-])[O-].[Li+].[Li+] [Li, lithium carbonate]",2-Oxoisovaleric acid Mean,rat CSF,4.3 µM
same,3-Phosphoglyceric acid Mean,rat CSF,0.3 µM
same,ADP-ribose Mean,rat CSF,0.010 µM
same,Adenosine Mean,rat CSF,0.2 µM
same,Alanin (Ala) Mean,rat CSF,54 µM
same,Arginine (Arg) Mean,rat CSF,31 µM
same,Argininosuccinic acid Mean,rat CSF,1.0 µM
same,Asparagic acid (Asp) Mean,rat CSF,1.8 µM
same,Asparagine (Asn) Mean,rat CSF,4.8 µM
same,Carnosine Mean,rat CSF,0.5 µM
same,Choline Mean,rat CSF,7.5 µM
same,Citric acid Mean,rat CSF,57 µM
same,Citrulline Mean,rat CSF,3.8 µM
same,Creatine Mean,rat CSF,60 µM
same,Creatinine Mean,rat CSF,6.0 µM
same,Dihydroxyacetone phosphate Mean,rat CSF,0.6 µM
same,Fructose 6-phosphate Mean,rat CSF,0.2 µM
same,Glucose 6-phosphate Mean,rat CSF,0.5 µM
same,Glutamic acid (Glu) Mean,rat CSF,2.0 µM
same,Glutamine (Gln) Mean,rat CSF,534 µM
same,Glutathione (GSSG) Mean,rat CSF,1.1 µM
same,Glyceraldehyde 3-phosphate Mean,rat CSF,0.9 µM
same,Glycerol 3-phosphate Mean,rat CSF,7.2 µM
same,Glycine (Gly) Mean,rat CSF,5.5 µM
same,Histidine (His) Mean,rat CSF,7.1 µM
same,Homoserine Mean,rat CSF,0.10 µM
same,Hydroxyproline Mean,rat CSF,1.1 µM
same,Hypoxanthine Mean,rat CSF,1.2 µM
same,Inosine monophosphate (IMP) Mean,rat CSF,0.10 µM
same,Isocitric acid Mean,rat CSF,2.0 µM
same,Isoleucine (Ile) Mean,rat CSF,1.5 µM
same,Lactic acid Mean,rat CSF,"2,438 μM"
same,Leucine (Leu) Mean,rat CSF,5.1 µM
same,Lysine (Lys) Mean,rat CSF,71 µM
same,Malic acid Mean,rat CSF,2.2 µM
same,Methionine (Met) Mean,rat CSF,4.4 µM
same,Mevalonic acid Mean,rat CSF,0.003 µM
same,N-Carbamoylaspartic acid Mean,rat CSF,0.04 µM
same,Nicotinamide Adenine dinucleotide (NAD^+) Mean,rat CSF,0.8 µM
same,Nicotinamide Adenine dinucleotide phophate (NADP^+) Mean,rat CSF,0.09 µM
same,Ornithine Mean,rat CSF,2.3 µM
same,Phenylalanine (Phe) Mean,rat CSF,3.1 µM
same,Phosphocreatine Mean,rat CSF,6.9 µM
same,Phosphoenolpyruvic acid Mean,rat CSF,0.2 µM
same,Pyruvic acid Mean,rat CSF,29 µM
same,Ribose 5-phosphate Mean,rat CSF,0.07 µM
same,Ribulose 5-phosphate Mean,rat CSF,0.10 µM
same,S-Adenosylmethionine Mean,rat CSF,0.5 µM
same,Serine (Ser) Mean,rat CSF,82 µM
same,Succinic acid Mean,rat CSF,9.0 µM
same,Threonine (Thr) Mean,rat CSF,54 µM
same,Tryptophan (Trp) Mean,rat CSF,1.2 µM
same,Tyrosine (Tyr) Mean,rat CSF,5.4 µM
same,UDP-glucose Mean,rat CSF,0.3 µM
same,Urea Mean,rat CSF,"4,332 μM"
same,Uric acid Mean,rat CSF,1.8 µM
same,Valine (Val) Mean,rat CSF,2.3 µM
same,Xanthine Mean,rat CSF,1.6 µM
same,cyclic AMP (cAMP) Mean,rat CSF,0.007 µM
same,cyclic GMP (cGMP) Mean,rat CSF,0.003 µM
same,CSF levels of argininosuccinic acid,"rats, vs control",significantly increased
same,CSF levels of isocitrate,"rats, vs control",not altered; also recorded: did not alter
same,CSF levels of succinic acid,"rats, vs control",significantly increased
"CCCC(CCC)C(=O)[O-].[Na+] [VPA, valproic acid sodium salt]",2-Oxoisovaleric acid Mean,rat CSF,4.3 µM
same,3-Phosphoglyceric acid Mean,rat CSF,0.3 µM
same,ADP-ribose Mean,rat CSF,0.01 µM
same,Adenosine Mean,rat CSF,0.2 µM
same,Alanin (Ala) Mean,rat CSF,50 µM
same,Arginine (Arg) Mean,rat CSF,27 µM
same,Argininosuccinic acid Mean,rat CSF,0.7 µM
same,Asparagic acid (Asp) Mean,rat CSF,1.6 µM
same,Asparagine (Asn) Mean,rat CSF,4.0 µM
same,Carnosine Mean,rat CSF,0.5 µM
same,Choline Mean,rat CSF,7.8 µM
same,Citric acid Mean,rat CSF,44 µM
same,Citrulline Mean,rat CSF,3.6 µM
same,Creatine Mean,rat CSF,56 µM
same,Creatinine Mean,rat CSF,6.2 µM
same,Dihydroxyacetone phosphate Mean,rat CSF,0.8 µM
same,Fructose 6-phosphate Mean,rat CSF,0.2 µM
same,Glucose 6-phosphate Mean,rat CSF,0.5 µM
same,Glutamic acid (Glu) Mean,rat CSF,1.6 µM
same,Glutamine (Gln) Mean,rat CSF,598 µM
same,Glutathione (GSSG) Mean,rat CSF,0.9 µM
same,Glyceraldehyde 3-phosphate Mean,rat CSF,1.1 µM
same,Glycerol 3-phosphate Mean,rat CSF,7.0 µM
same,Glycine (Gly) Mean,rat CSF,6.5 µM
same,Histidine (His) Mean,rat CSF,7.1 µM
same,Homoserine Mean,rat CSF,0.09 µM
same,Hydroxyproline Mean,rat CSF,1.1 µM
same,Hypoxanthine Mean,rat CSF,1.4 µM
same,Inosine monophosphate (IMP) Mean,rat CSF,0.1 µM
same,Isocitric acid Mean,rat CSF,1.6 µM
same,Isoleucine (Ile) Mean,rat CSF,1.2 µM
same,Lactic acid Mean,rat CSF,"2,361 μM"
same,Leucine (Leu) Mean,rat CSF,4.5 µM
same,Lysine (Lys) Mean,rat CSF,85 µM
same,Malic acid Mean,rat CSF,0.7 µM
same,Methionine (Met) Mean,rat CSF,3.3 µM
same,N-Carbamoylaspartic acid Mean,rat CSF,0.02 µM
same,Nicotinamide Adenine dinucleotide (NAD^+) Mean,rat CSF,0.8 µM
same,Nicotinamide Adenine dinucleotide phophate (NADP^+) Mean,rat CSF,0.09 µM
same,Ornithine Mean,rat CSF,2.2 µM
same,Phenylalanine (Phe) Mean,rat CSF,2.9 µM
same,Phosphocreatine Mean,rat CSF,6.8 µM
same,Phosphoenolpyruvic acid Mean,rat CSF,0.15 µM
same,Pyruvic acid Mean,rat CSF,21 µM
same,Ribose 5-phosphate Mean,rat CSF,0.06 µM
same,Ribulose 5-phosphate Mean,rat CSF,0.08 µM
same,S-Adenosylmethionine Mean,rat CSF,0.5 µM
same,Serine (Ser) Mean,rat CSF,83 µM
same,Succinic acid Mean,rat CSF,7.4 µM
same,Threonine (Thr) Mean,rat CSF,41 µM
same,Tryptophan (Trp) Mean,rat CSF,1.0 µM
same,Tyrosine (Tyr) Mean,rat CSF,5.2 µM
same,UDP-glucose Mean,rat CSF,0.3 µM
same,Urea Mean,rat CSF,"3,714 μM"
same,Uric acid Mean,rat CSF,1.8 µM
same,Valine (Val) Mean,rat CSF,2.1 µM
same,Xanthine Mean,rat CSF,1.5 µM
same,cyclic AMP (cAMP) Mean,rat CSF,0.006 µM
same,cyclic GMP (cGMP) Mean,rat CSF,0.003 µM
same,CSF levels of arginine,"rats, vs control",significantly altered
same,CSF levels of argininosuccinic acid,"rats, vs control",significantly altered
same,CSF levels of glutamine,"rats, vs control",significantly altered
same,CSF levels of threonine,"rats, vs control",significantly altered
same,CSF levels of tryptophan,"rats, vs control",significantly altered
same,CSF levels of isocitrate,"rats, vs control, sodium salt",not altered; also recorded: did not alter
